The first series in a line: in vitro. As to conditions: human, hela cells, % viability.
Regarding `COc1ccc(OC)c(C2C(C(=O)c3ccccc3)=C(O)C(=O)N2CCN2CCOCC2)c1` (centres unmarked) [CBK264748], the viability at 28.5 h, 10 µM worked out at 114%. Same read-out and setting: under `CC(C)(C)c1ccccc1NC(=O)N(CCN)Cc1cc(F)cc(F)c1` [CBK046263C] stands 98.6%; under `CS(=O)(=O)c1ccc(CN2C(=O)CC3(CCN(Cc4ccccc4)CC3)C2=O)cc1` [CBK144065T], 108%; under `O=C(CN1CCC(c2ccccc2F)CC1)Nc1nccs1` [CBK283579], 106%. The same measure, in the same setting: under `CCCCc1ccc(N2C(=O)CC(Nc3ccc(C(=O)O)cc3)C2=O)cc1` (centres unmarked) [CBK296972] stands 108%; under `Cc1ccc(S(=O)(=O)Nc2ccnc(Cl)n2)cc1` [CBK067661], 90.7%. For `CCc1nn(CC(=O)N2CCCCCC2)c(=O)c2cc3occc3n12` [CBK283677], the viability at 28.5 h, 10 µM turned out to be 86.9%.

For `O=C1c2ccccc2C(=O)N1Cc1nc2ccccc2c(=O)n1CCCN1CCOCC1` [CBK268463], the viability at 28.5 h, 10 µM came out at 96.1%. The same measure, in the same setting: in the case of `O=c1c2ccccc2nc(/C=C/c2cccnc2)n1Cc1ccccc1` [CBK265876] it was 106%; in that of `Cc1ccc(S(=O)(=O)N(CC(O)CN2CCCCC2)c2ccccc2)cc1` (centres unmarked) [CBK263570], 97.7%; in that of `Cc1csc(NC(=O)Cc2ccccc2F)n1` [CBK288252], 84.3%.

For the molecule `Cc1c(C(=O)N(C)CCc2ccncc2)[nH]c2ccccc12` [CBK283271], the viability at 28.5 h, 10 µM was 104%. The same measure, in the same setting: in the case of `COc1ncc(-c2nccnc2OCC2COc3ccccc3O2)c(OC)n1` (centres unmarked) [CBK106754] it was 102%; in that of `Cn1c(COc2ccccc2)nnc1SCC(=O)c1ccc(-c2ccccc2)cc1` [CBK267426], 87.9%; in that of `O=C(Nc1cccc2ccccc12)C1CCCN1S(=O)(=O)c1ccc(F)cc1` (centres unmarked) [CBK138924], 97.8%. Still for that read-out and setting: in the case of `CCOC(=O)C(C(C)=O)(N1CCOCC1)N1CCOCC1` [CBK261173] it was 90.2%. With `O=C(CSc1ccc2nnc(-c3cccnc3)n2n1)c1ccccc1` [CBK287624], the viability at 28.5 h, 10 µM is 100%. With `O=C(O)c1ccc(NC(=O)C2CCN(S(=O)(=O)c3ccccc3)CC2)cc1` [CBK265181], the viability at 28.5 h, 10 µM was found to be 110%. Regarding `Cc1cc(=O)oc2ccc(OCC(=O)N(Cc3ccc(F)cc3)Cc3ccco3)cc12` [CBK266639], the viability at 28.5 h, 10 µM was 103%. The same measure, in the same setting: in the case of `CC(C)OC(=O)Cc1nc(CN2CCc3sccc3C2C)cs1` (centres unmarked) [CBK305284] it was 85.3%. For the molecule `O=C(NC(=S)Nc1ccc(N2CCN(Cc3ccccc3Cl)CC2)cc1)c1ccco1` [CBK266066], the viability at 28.5 h, 10 µM turned out to be 101%. The same measure, in the same setting: under `O=C(NCCCO)C1CCCN(S(=O)(=O)c2ccc3ccccc3c2)C1` (centres unmarked) [CBK270141] stands 88.3%; under `CC1(C)Cc2nc(-c3ccccc3)nc(SCC(=O)NCCc3ccccc3)c2CO1` [CBK267205], 86.7%; under `O=C(Cn1nc(-c2cc3c(s2)CCC3)oc1=O)NC1CC1` [CBK283800], 101%.

With `COc1cc(-c2nccnc2N[C@@H](CO)C(C)C)cc(OC)c1OC` [CBK038023], the viability at 28.5 h, 10 µM was 111%. The same measure, in the same setting: in the case of `CCC(CC)C(=O)N(C)c1c(C)nc2ccc(C(=O)N(C)CCN(C)C)cn12` [CBK146491] it was 94.8%.

In the case of `O=C(O)/C=C/C(=O)Nc1cccc(C(=O)O)c1` [CBK260988], the viability at 28.5 h, 10 µM stood at 97.7%. In the case of `OC1(c2cccnc2)CCCC2CN(Cc3c(F)cccc3F)CC21` (centres unmarked) [CBK284512], the viability at 28.5 h, 10 µM was determined as 114%.

Turning to `O=C(c1ccccc1)N1C[C@@H](c2ccsc2)[C@@H]2CN(Cc3ccc(Cl)cc3)CC[C@@H]21` [CBK285615], the viability at 28.5 h, 10 µM stood at 100%.

`N#CC1(NC(=O)CN2CCOC(Cn3cccn3)C2)CCCCC1` (centres unmarked) [CBK305268]: the viability at 28.5 h, 10 µM is 87.2%. As to `CC(CCN(CCN)C(=O)N1CCC(Cn2cncn2)(C2CCCCC2)CC1)c1ccccc1` (centres unmarked) [CBK002130C], the viability at 28.5 h, 10 µM is 110%. In the case of `CN1CCN(C(=O)CN(c2ccccc2)S(=O)(=O)N(C)C)CC1` [CBK268079], the viability at 28.5 h, 10 µM stood at 86.6%.

Take `O=C(Nc1sc2c(c1C(=O)NCc1cccnc1)CCC2)c1ccco1` [CBK269599]: the viability at 28.5 h, 10 µM came out at 81%.

With `COc1ccc(-c2c(C(F)(F)F)oc3cc(OC(=O)c4cccc(C)c4)ccc3c2=O)cc1OC` [CBK263907], the viability at 28.5 h, 10 µM was determined as 99.3%.

`Cc1nc2c(C(=O)NC3CCOCC3)cnn2c(C)c1Cc1cccc(Br)c1` [CBK165011]: the viability at 28.5 h, 10 µM came out at 92.3%.

For the molecule `COc1cc(CNCc2ccc(F)cc2)cc(Cl)c1OCC(N)=O` [CBK270256C], the viability at 28.5 h, 10 µM worked out at 89%. Consider `Cn1c(N)c(C(=O)NCC2CCCO2)c2nc3ccccc3nc21` (centres unmarked) [CBK269342], for which the viability at 28.5 h, 10 µM was 96.8%.

As to `O=C(CSc1ncnc2[nH]ncc12)c1ccc(-c2ccccc2)cc1` [CBK300519], the viability at 28.5 h, 10 µM was 88.4%.

As to `O=C1CN(C(=O)Nc2ccc(Cl)cc2)CCN1` [CBK155861], the viability at 28.5 h, 10 µM was determined as 81.3%.

Regarding `COc1cc(-c2cc(N(C)CCN(C)C)n3nccc3n2)cc(OC)c1OC` [CBK037181], the viability at 28.5 h, 10 µM was determined as 110%. Turning to `O=C(NC1CCCCC1)N[C@H]1[C@H](O)[C@@H](N2CCN(c3ccccc3)CC2)[C@@H]2OC[C@H]1O2` [CBK288822], the viability at 28.5 h, 10 µM is 95%. Turning to `CCCSCC(=O)Nc1nn(C)c2cccc(N3CCOCC3)c12` [CBK307354], the viability at 28.5 h, 10 µM came out at 105%. Take `O=C(c1ccc(F)cc1)C1CCN(Cc2ccc(Cl)c(Cl)c2)CC1` [CBK149114]: the viability at 28.5 h, 10 µM is 98.5%. Same read-out and setting: under `CC(C)CC(C(=O)Nc1ccc(Br)cc1)N1C(=O)c2ccccc2C1=O` (centres unmarked) [CBK264253] stands 94.1%. Turning to `Clc1ccc(-c2nn3c4cc(N5CCNCC5)ccc4nc3c3ccccc23)cc1` [CBK268319], the viability at 28.5 h, 10 µM was 102%. Take `CCOc1cccc(NC(=O)/C(C#N)=C\c2cc(C)n(-c3cccc(C(=O)O)c3)c2C)c1` [CBK263186]: the viability at 28.5 h, 10 µM is 115%. Same read-out and setting: under `CC1CCCCN1Cc1nc2c(c(=O)n(C)c(=O)n2C)n1CCc1ccccc1` (centres unmarked) [CBK269189] stands 117%; under `CC(C)NC(=O)N[C@H]1CCN2C(=O)c3ccc(Cl)cc3NC(=O)[C@H]12` [CBK289343], 99.5%. With `CCOCCCNc1c2c(c(C#N)c3nc4ccccc4n13)CCC2` [CBK263151], the viability at 28.5 h, 10 µM was found to be 93.5%. The same measure, in the same setting: in the case of `O=S(=O)(c1ccc(-c2ccccc2)cc1)n1ccc2cc(N3CCN(Cc4ccccc4)CC3)ccc21` [CBK001388C] it was 115%; in that of `CC(C)(CO)NC(=O)c1cc(S(=O)(=O)N2CCOCC2)ccc1Cl` [CBK269748], 94%; in that of `Cc1nn(CC(=O)N(C)CCn2ccnc2C)c(=O)c2ccccc12` [CBK306536], 91.8%. Still for that read-out and setting: in the case of `CC(C)(C)OC(=O)NC1CCN(C(=O)Nc2ccc(OCc3ccccc3)cc2)CC1` [CBK086602] it was 98.4%; in that of `CC(C)(O)C#Cc1ccc(C(=O)N2CCC(C(N)=O)(N3CCCCC3)CC2)cc1` [CBK264065], 97.3%; in that of `NC(C(=O)O)C(O)c1ccccc1[N+](=O)[O-]` (centres unmarked) [CBK262389], 92.7%. Consider `Cc1ccc(S(=O)(=O)N(CCO)CC2CC2)c(Cl)c1` [CBK304885], for which the viability at 28.5 h, 10 µM amounted to 75%. Same read-out and setting: under `Cc1cc(C(=O)COc2cccc(-n3cnnn3)c2)c(C)n1C(C)c1ccccc1` (centres unmarked) [CBK295643] stands 70.2%; under `O=CN1CCN(S(=O)(=O)c2ccc3c(c2)Cc2cc(S(=O)(=O)N4CCN(C=O)CC4)ccc2-3)CC1` [CBK264351], 98.8%; under `CCCCN(C(=O)c1cc(C)nc2ccccc12)c1ccccc1` [CBK296926], 89.9%.

Regarding `CCCCc1nccc(-c2ccc(OCC)c(C(=O)O)c2)n1` [CBK307429], the viability at 28.5 h, 10 µM was determined as 82.8%. As to `COc1ccccc1CNc1ccc(S(N)(=O)=O)cc1` [CBK288476], the viability at 28.5 h, 10 µM was 92.7%. As for `CCCC/C=C/c1cncc(N2CCN(C(=O)c3ccco3)CC2)n1` [CBK037918], the viability at 28.5 h, 10 µM came to 91.3%. The same measure, in the same setting: under `CCOc1ncccc1NC(=O)c1cnc2c(cnn2CC(C)C)c1` [CBK304288] stands 83.3%; under `COc1ccc2[nH]c(=O)c(CNc3ccc4c(c3)-c3ccccc3S(=O)(=O)N4)cc2c1` [CBK286409], 84.2%. On the same count and under the same terms, in the case of `COc1ccc(Cl)cc1N1CCN(CCCn2c(=O)[nH]c3ccccc32)CC1` [CBK138338] it was 95.7%; in that of `CN(C)C(=O)CN1C(=O)CC2(C1=O)C(=O)N(C)c1ccc(Cl)cc12` (centres unmarked) [CBK075232], 90.2%; in that of `CC(C)n1nnnc1-c1ccccc1NS(=O)(=O)c1cn[nH]c1` [CBK305542], 88.6%.

Take `O=S(=O)(NC[C@H]1C[C@@H]2CCN1C[C@@H]2CN1CCOCC1)c1ccccc1` [CBK288760]: the viability at 28.5 h, 10 µM turned out to be 92.9%. On the same count and under the same terms, in the case of `O=C(NCc1cccs1)c1cnoc1-c1ccc([N+](=O)[O-])cc1` [CBK153845] it was 82.9%.

Take `O=C(NCC(c1ccccc1)c1ccccc1)N1CCN(c2ccc(F)cc2)CC1` [CBK156415]: the viability at 28.5 h, 10 µM was 97%.

Turning to `Clc1ccc(COc2nccnc2OCc2cccnc2N2CCOCC2)cc1Cl` [CBK161610], the viability at 28.5 h, 10 µM stood at 88.8%. The same measure, in the same setting: in the case of `CCCc1cnc(N2CCN(S(=O)(=O)c3ccc(NC(C)=O)cc3Cl)CC2)nc1` [CBK086208] it was 117%. On the same count and under the same terms, under `CNC(=S)NCc1nc(-c2ccc(C)cc2)no1` [CBK288418] stands 97.3%; under `CC(=O)Nc1cccc(-c2cncc(NCCc3c[nH]c4ccccc34)n2)c1` [CBK037820], 97.9%. Still for that read-out and setting: in the case of `Cc1ccc2cc(CN(Cc3ccco3)C(=O)c3cccs3)c(O)nc2c1` [CBK269274] it was 105%; in that of `COc1cc(F)cc(OC2CCNCC2)c1NC(=O)Cc1c[nH]c2ccccc12` [CBK050246T], 91%.

The same series, now with this note: human, hela cells, % viability, bulk resorufin, single well.
In the case of `COc1ccc(Cn2nc(C(=O)Nc3nnc(C(F)(F)F)s3)c3ccccc32)cc1` [CBK047884], the viability at 28.5 h, 10 µM was 99.3%.
